Data as given in publication PMC7408349, “Synthesis and Anticancer Activity of Dimeric Polyether Ionophores” (Biomolecules, 2020).

Key:
[1] = test system: LoVo cells (human colon adenocarcinoma, drug-sensitive variant); test: In vitro antiproliferative activity, SRB assay, LoVo; format: cell-based; conditions: 72 h incubation, mean ± SD, LAS, MON, SAL as sodium salts
Source text: (§1) Each experiment was repeated at least three times separately.

[2] = test system: LoVo/DX cells (doxorubicin-resistant human colon adenocarcinoma sub-line, ABCB1 overexpression); test: In vitro antiproliferative activity, SRB assay, LoVo/DX; conditions: Homo sapiens, LoVo/DX, 72 h, read-out: IC50 LoVo/DX
[3] = test system: MV-4-11 cells (human acute myeloid leukemia cell line); test: In vitro antiproliferative activity, SRB assay, MV-4-11; format: cell-based; conditions: MV4-11, 72 h incubation, mean ± SD, LAS, MON, SAL as sodium salts
Source text: as §1

[4] = test system: MCF-7 cells (human breast cancer cell line); test: In vitro antiproliferative activity, SRB assay, MCF-7; format: cell-based; conditions: MCF7, 72 h incubation, mean ± SD, LAS, MON, SAL as sodium salts, '---' = inactive (undetectable IC50 in tested concentration range)
Source text: as §1

[5] = test system: BALB/3T3 cells (normal embryonic fibroblasts); test: Cytotoxicity on non-tumor cells, SRB assay, BALB/3T3; format: cell-based, murine; conditions: Mus musculus, non-tumor cell line, 72 h incubation, mean ± SD, '---' = inactive (undetectable IC50 in tested concentration range)
Source text: as §1

[6] = test system: MCF10A cells (normal mammary epithelial cell line); test: Cytotoxicity on non-tumor cells, SRB assay, MCF10A; format: cell-based; conditions: Homo sapiens, MCF-10A, 72 h incubation, mean ± SD, '---' = inactive (undetectable IC50 in tested concentration range)
Source text: as §1

[7] = in vitro
[8] = test system: JIMT-1 cells (human breast cancer cell line); test: In vitro antiproliferative activity, SRB assay, JIMT-1; format: cell-based; conditions: mean ± SD, LAS, MON, SAL as sodium salts, '---' = inactive (undetectable IC50 in tested concentration range)
Source text: as §1

[9] = test system: SKBR-3 cells (human breast cancer cell line); test: In vitro antiproliferative activity, SRB assay, SKBR-3; format: cell-based; conditions: mean ± SD, LAS, MON, SAL as sodium salts
Source text: as §1

[10] = In vitro antiproliferative activity, SRB assay, LoVo/DX
[11] = mouse (BALB/3T3), human (LoVo/DX)
[12] = Homo sapiens, JIMT-1, 72 h incubation
[13] = Homo sapiens, SK-BR-3, 72 h incubation

| Structure (SMILES) | IC50 [1] | IC50 [2] | IC50 [3] | IC50 [4] | IC50 [5] | IC50 [6] | selectivity ratio at 72 h ([7]; human) | selectivity ratio at 72 h [7, 11] | IC50 [8, 12] | IC50 [9, 13] | IC50 ([8]; 72 h incubation) | IC50 ([9]; 72 h incubation) | selectivity ratio at 72 h ([10]; human) | selectivity ratio at 72 h [10, 11] |
| --- | --- | --- | --- | --- | --- | --- | --- | --- | --- | --- | --- | --- | --- | --- |
| CC[C@@H](C(=O)[C@@H](C)[C@@H](O)[C@H](C)[C@@H]1O[C@@H]([C@@H](CC)C(=O)O)CC[C@@H]1C)[C@H]1O[C@]2(C=C[C@@H](O)[C@]3(CC[C@@](C)([C@H]4CC[C@](O)(CC)[C@H](C)O4)O3)O2)[C@H](C)C[C@@H]1C [SAL, salinomycin] | 250 ± 70 nM | 610 ± 210 nM | 100 ± 30 nM | 930 ± 330 nM | 1550 ± 860 nM | 1280 ± 460 nM | 2.1 | 2.54 | 2670 nM | 270 nM | – | – | – | – |
| N.N.[Cl][Pt][Cl] [CIS, cisplatin] | – | – | – | – | – | – | – | – | – | – | 8230 nM | 4170 nM | – | – |
| C=C(C)[C@@H]1CC[C@]2(C(=O)O)CC[C@]3(C)[C@H](CC[C@@H]4[C@@]5(C)CC[C@H](O)C(C)(C)[C@@H]5CC[C@]43C)[C@@H]12 [BET, betulinic acid] | 16500 ± 6560 nM | 8960 ± 1080 nM | 1420 ± 970 nM | 12600 ± 1570 nM | 84800 ± 10000 nM | 7230 ± 1240 nM | – | – | 9900 ± 2320 nM | 7470 ± 1160 nM | – | – | 0.81 | 9.47 |
| CC[C@@H](C(=O)[C@@H](C)[C@@H](O)[C@H](C)CCc1ccc(C)c(O)c1C(=O)O)[C@H]1O[C@](CC)([C@H]2CC[C@](O)(CC)[C@H](C)O2)C[C@@H]1C [LAS, lasalocid acid] | 4050 ± 1020 nM | 4550 ± 270 nM | 1960 ± 650 nM | 4440 ± 1340 nM | 9110 ± 3650 nM | 6810 ± 2850 nM | – | – | 5550 nM | 1370 ± 10 nM | – | – | 1.5 | 2 |
| C=C(C)[C@@H]1CC[C@]2(C(=O)NCc3cn([C@H]4C=C[C@]5(O[C@H]([C@@H](CC)C(=O)[C@@H](C)[C@@H](O)[C@H](C)[C@@H]6O[C@@H]([C@@H](CC)C(=O)O)CC[C@@H]6C)[C@@H](C)C[C@H]5C)O[C@@]45CC[C@@](C)([C@H]4CC[C@](O)(CC)[C@H](C)O4)O5)nn3)CC[C@]3(C)[C@H](CC[C@@H]4[C@@]5(C)CC[C@H](O)C(C)(C)[C@@H]5CC[C@]43C)[C@@H]12 [compound 18, Salinomycin-betulinic acid dimer] | 430 ± 130 nM | 14100 ± 6900 nM | 100 ± 90 nM | 4190 ± 1820 nM | 4870 ± 1560 nM | 10300 ± 4470 nM | 0.73 | 0.35 | 7280 ± 3110 nM | 340 ± 130 nM | – | – | – | – |
| COc1cccc2c1C(=O)c1c(O)c3c(c(O)c1C2=O)C[C@@](O)(C(=O)CO)C[C@@H]3O[C@H]1C[C@H](N)[C@H](O)[C@H](C)O1 [DX, doxorubicin] | 110 ± 4 nM | 8740 ± 1460 nM | 20 ± 4 nM | 130 ± 50 nM | 260 ± 140 nM | 170 ± 30 nM | – | – | 400 ± 100 nM | 110 ± 10 nM | – | – | 0.02 | 0.03 |
| CC[C@@]1([C@@H]2O[C@@H]([C@H]3O[C@@](O)(CO)[C@H](C)C[C@@H]3C)C[C@@H]2C)CC[C@H]([C@]2(C)CC[C@]3(C[C@H](O)[C@@H](C)[C@@H]([C@@H](C)[C@@H](OC)[C@H](C)C(=O)O)O3)O2)O1 [MON, monensin] | 90 ± 60 nM | 260 ± 110 nM | 30 ± 20 nM | 510 ± 120 nM | 1100 ± 240 nM | 870 ± 230 nM | 3.35 | 4.23 | 1170 ± 140 nM | 40 ± 20 nM | – | – | – | – |
| C=C(C)[C@@H]1CC[C@]2(C(=O)OCc3cn([C@H]4C=C[C@]5(O[C@H]([C@@H](CC)C(=O)[C@@H](C)[C@@H](O)[C@H](C)[C@@H]6O[C@@H]([C@@H](CC)C(=O)O)CC[C@@H]6C)[C@@H](C)C[C@H]5C)O[C@@]45CC[C@@](C)([C@H]4CC[C@](O)(CC)[C@H](C)O4)O5)nn3)CC[C@]3(C)[C@H](CC[C@@H]4[C@@]5(C)CC[C@H](O)C(C)(C)[C@@H]5CC[C@]43C)[C@@H]12 [compound 19, Salinomycin-betulinic acid dimer] | 2660 ± 980 nM | – | 290 ± 140 nM | 6870 ± 3280 nM | 6220 ± 1440 nM | 7020 ± 2440 nM | – | – | 7090 ± 2220 nM | 600 ± 260 nM | – | – | – | – |
| C=C(C)[C@@H]1CC[C@]2(C(=O)O)CC[C@]3(C)[C@H](CC[C@@H]4[C@@]5(C)CC[C@H](OC(=O)OCc6cn([C@H]7C=C[C@]8(O[C@H]([C@@H](CC)C(=O)[C@@H](C)[C@@H](O)[C@H](C)[C@@H]9O[C@@H]([C@@H](CC)C(=O)O)CC[C@@H]9C)[C@@H](C)C[C@H]8C)O[C@@]78CC[C@@](C)([C@H]7CC[C@](O)(CC)[C@H](C)O7)O8)nn6)C(C)(C)[C@@H]5CC[C@]43C)[C@@H]12 [compound 20, Salinomycin-betulinic acid dimer] | 5180 ± 720 nM | 48600 ± 11800 nM | 1920 ± 820 nM | 21700 ± 5280 nM | 18700 ± 4570 nM | 30300 ± 13800 nM | 0.62 | 0.39 | 14700 ± 4880 nM | 3250 ± 240 nM | – | – | – | – |
